# Experimental data reported in US8084467B2, “Pyrazole derivatives as cannabinoid receptor antagonists” (University of Connecticut, priority 2004, dated 2011).
# Values joined by “and” are separate entries in the source; they are usually repeats but may differ in a detail not shown here. Equal values may be shown once. Read-outs that look alike come from different tables or passages of the source.
# How the values were obtained:
# CB2 receptor = molecular target: T1, CB2 receptor (Mus musculus, UniProt P47936); experiment: CB2 receptor binding, mouse spleen membranes, same manner as the CB1 binding assay; details: for Ki: [3H] CP-55,940; for selectivity CB2: ratio of CB1 Ki to CB2 Ki
# T1 construct: membranes were prepared from frozen mouse spleen; from tissue; host or cells: mouse spleen
# Experimental: Some of the inventive analogs were tested for CB2 receptor binding affinity and for CB1 receptor affinity (to determine selectivity). […] The lower the Ki value the higher the binding affinity.
# (§1) The treated membranes were subsequently used in the binding assay described below. Approximately 30 μg of membranes were incubated in silanized 96-well microtiter plate with TME containing 0.1% essentially fatty acid-free bovine serum albumin (BSA), 0.8 nM [^3H] […] Radioactivity was detected using MicroScint 20 scintillation cocktail added directly to the dried filterplates, and the filterplates were counted using a Packard Instruments Top-Count. […] Data collected from three independent experiments performed with duplicate determinations was normalized between 100% and 0% specific binding for [^3H] […] The normalized data was analyzed using a 4-parameter nonlinear logistic equation to yield IC50 values.
# Silanized centrifuge tubes were used throughout to minimize receptor loss due to adsorption. The CB2 binding assay was conducted in the same manner as for the CB1 binding assay. The binding affinities (Ki) were also expressed in nanomoles (nM).
# CB1 cannabinoid receptor = molecular target: T2, CB1 cannabinoid receptor (Rattus norvegicus, UniProt P20272); experiment: CB1 receptor binding, rat forebrain membranes, [3H] CP-55,940 displacement; details: for Ki: 0.8 nM [3H] CP-55,940
# T2 construct: membranes were prepared from rat forebrain membranes; from tissue; host or cells: rat forebrain
# Experimental: Some of the inventive analogs were tested for CB2 receptor binding affinity and for CB1 receptor affinity (to determine selectivity). […] The lower the Ki value the higher the binding affinity. […]
# Membranes, previously frozen at −80° C., were thawed on ice. To the stirred suspension was added three volumes of TME (25 mM Tris-HCl buffer, 5 mM MgCl2 and 1 mM EDTA) at a pH 7.4. The suspension was incubated at 4° C. for 30 min. At the end of the incubation, the membranes were pelleted and washed three times with TME.
# as §1
# [1] = mouse spleen membranes, read-out: affinities Ki CB2
# [2] = rat forebrain membranes, read-out: affinities Ki CB1
# [3] = affinities Ki CB2, mouse spleen membranes
# [4] = affinities Ki CB1, rat forebrain membranes
# T1 sequence (P47936 whole entry): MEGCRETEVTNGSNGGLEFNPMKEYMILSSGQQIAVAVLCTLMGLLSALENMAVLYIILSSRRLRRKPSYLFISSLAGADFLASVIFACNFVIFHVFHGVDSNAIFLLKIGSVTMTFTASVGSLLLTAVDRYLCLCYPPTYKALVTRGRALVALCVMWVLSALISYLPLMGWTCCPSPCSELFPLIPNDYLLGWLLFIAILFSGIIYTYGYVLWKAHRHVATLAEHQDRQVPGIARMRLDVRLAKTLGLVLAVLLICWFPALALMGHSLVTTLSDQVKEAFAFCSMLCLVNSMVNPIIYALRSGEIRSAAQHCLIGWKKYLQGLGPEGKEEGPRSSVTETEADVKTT
# T2 sequence (P20272 whole entry): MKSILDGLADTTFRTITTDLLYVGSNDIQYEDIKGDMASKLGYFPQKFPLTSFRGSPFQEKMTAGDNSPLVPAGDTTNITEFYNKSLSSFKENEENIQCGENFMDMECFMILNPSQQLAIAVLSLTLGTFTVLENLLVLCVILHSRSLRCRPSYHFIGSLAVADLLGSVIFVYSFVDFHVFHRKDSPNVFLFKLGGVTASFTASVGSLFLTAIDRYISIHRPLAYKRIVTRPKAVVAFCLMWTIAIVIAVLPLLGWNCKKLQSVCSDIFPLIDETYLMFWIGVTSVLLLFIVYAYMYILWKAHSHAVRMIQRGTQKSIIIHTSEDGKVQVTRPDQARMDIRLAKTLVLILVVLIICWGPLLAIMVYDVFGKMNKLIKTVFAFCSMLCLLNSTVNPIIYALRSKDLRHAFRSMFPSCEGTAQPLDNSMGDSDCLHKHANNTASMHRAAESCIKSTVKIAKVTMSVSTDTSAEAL
Structure (SMILES),Ki (CB2 receptor; [1]) [nM],Ki (CB1 cannabinoid receptor; [2]) [nM],selectivity CB1 (CB1 cannabinoid receptor; ratio of CB2 Ki to CB1 Ki),selectivity CB2 (CB2 receptor),Ki (CB2 receptor; [3]),Ki (CB1 cannabinoid receptor; [4]),selectivity CB1 (CB1 cannabinoid receptor)
O=C(NN1CCCCC1)c1nn(-c2ccc(Cl)cc2Cl)c(-c2ccc(-c3nnn[nH]3)cc2)c1CO [Compound 2-4],13600,1840,7.4,,,,
Cc1c(C(=O)NN2CCCCC2)nn(-c2ccc(Cl)cc2Cl)c1-c1ccc(-c2nnnn2C)cc1 [Compound 2-2],242,90,2.7,,,,
CN(C(=O)c1nn(-c2ccc(Cl)cc2Cl)c(-c2ccc(-c3nnnn3C)cc2)c1CO)C1CCCCC1 [Compound 2-17],1410,1080,1.3,,,,
Cc1c(NC(=O)N(C)C2CCCCC2)nn(-c2ccc(Cl)cc2Cl)c1-c1ccc(Br)cc1 [Compound 3-11],917,29,31.6,,,,
O=C(NN1CCCCC1)c1nn(-c2ccc(Cl)cc2Cl)c(-c2ccc(-c3cccnc3)cc2)c1CF [Compound 1-6],1930,15.1,128,,,,
Cc1c(C(=O)N(C)C2CCCCC2)nn(-c2ccc(Cl)cc2Cl)c1-c1ccc(-c2nnnn2C)cc1 [Compound 2-14],941,1270,,1.4,,,
Cc1c(C(=O)NCC23CC4CC(CC(C4)C2)C3)nn(CCCCCCl)c1-c1ccccc1 [Compound 4-5],,,,3,6.65 nM and 6.6 nM,19.8 nM and 20 nM,
Cn1nnnc1-c1ccc(-c2c(CO)c(C(=O)NC3CCCCC3)nn2-c2ccc(Cl)cc2Cl)cc1 [Compound 2-11],122,118,1,,,,
Cc1c(C(=O)N(C)C2CCCCC2)nn(-c2ccc(Cl)cc2Cl)c1-c1ccc(-c2ccncc2)cc1 [Compound 3-6],3290,189,17.4,,,,
Cc1c(C(=O)NC23CC4CC(CC(C4)C2)C3)nn(CCCCCN=[N+]=[N-])c1-c1ccccc1 [Compound 4-11],,,,4,0.965 nM and 1 nM,3.96 nM and 4 nM,
CCOCc1c(C(=O)NN2CCCCC2)nn(-c2ccc(Cl)cc2Cl)c1-c1ccc(Br)cc1 [Compound 1-12],490,46,11,,,,
CN(C(=O)c1nn(-c2ccc(Cl)cc2Cl)c(-c2ccc(I)cc2)c1CO)C1CCCCC1 [Compound 3-2],,,29.3,,528 nM,18 nM,
CN(C)CCOCc1c(C(=O)NC2CCCCC2)nn(-c2ccc(Cl)cc2Cl)c1-c1ccc(Br)cc1 [Compound 1-16],140,24,5.8,,,,
Cc1c(C(=O)NN2CCCCC2)nn(-c2ccc(Cl)cc2Cl)c1-c1ccc(-c2ccc(Cl)cc2)cc1 [Compound 1-2],1590,5.8,274,,,,
CN(C(=O)c1nn(-c2ccc(Cl)cc2Cl)c(-c2ccc(-c3nnn[nH]3)cc2)c1CO)C1CCCCC1 [Compound 2-16],1120,293,3.8,,,,
CNCc1c(C(=O)NC2CCCCC2)nn(-c2ccc(Cl)cc2Cl)c1-c1ccc(Br)cc1 [Compound 1-15],397,172,2.3,,,,
Cc1c(NC(=O)NC2CCCCC2)nn(-c2ccc(Cl)cc2Cl)c1-c1ccc(I)cc1 [Compound 3-10],21800,26,838.1,,,,
Cc1c(C=CC23CC4CC(CC(C4)C2)C3)nn(-c2ccc(Cl)cc2Cl)c1-c1ccc(Br)cc1 [Compound 1-25],4010,17700,,4.4,,,
O=C(Nc1nn(-c2ccc(Cl)cc2Cl)c(-c2ccc(Br)cc2)c1CBr)NC1CCCCC1 [Compound 3-7],136,38,3.6,,,,

Structure (SMILES),Ki (CB2 receptor; [1]) [nM],Ki (CB1 cannabinoid receptor; [2]) [nM],selectivity CB1 (CB1 cannabinoid receptor; ratio of CB2 Ki to CB1 Ki),selectivity CB2 (CB2 receptor),Ki (CB2 receptor; [3]),Ki (CB1 cannabinoid receptor; [4]),selectivity CB1 (CB1 cannabinoid receptor)
Cc1c(C=Cc2ccccc2)nn(-c2ccc(Cl)cc2Cl)c1-c1ccc(Br)cc1 [Compound 1-24],10600,141,75.0,,,,
COCc1c(C(=O)NC23CC4CC(CC(C4)C2)C3)nn(-c2ccc(Cl)cc2Cl)c1-c1ccc(Br)cc1 [Compound 1-7],1680,53,,,,,32
CN(C(=O)Nc1nn(-c2ccc(Cl)cc2Cl)c(-c2ccc(Br)cc2)c1CO)C1CCCCC1 [Compound 2-21],4470,296,15.1,,,,
CCOCc1c(C(=O)NC23CC4CC(CC(C4)C2)C3)nn(-c2ccc(Cl)cc2Cl)c1-c1ccc(Br)cc1 [Compound 1-11],47500,105,452,,,,
Cc1c(C(=O)Nc2ccc3ccccc3c2)nn(CCCCCCl)c1-c1ccccc1 [Compound 4-3],,,,,15.4 nM,14.6 nM,
COCOCc1c(C(=O)N2CCCCC2)nn(-c2ccc(Cl)cc2Cl)c1-c1ccc(Br)cc1 [Compound 1-14],,395,7.8,,3100 nM,,
CN(C(=O)c1nn(-c2ccc(Cl)cc2Cl)c(-c2ccc(-c3cccnc3)cc2)c1CO)C1CCCCC1 [Compound 3-4],759,227,3.3,,,,
Cc1c(C(=O)NCC2CCC3CC2C3(C)C)nn(CCCCCCl)c1-c1ccccc1 (centres unmarked) [Compound 4-8],,,,2,0.615 nM and 0.6 nM,1.22 nM and 1.2 nM,
COCc1c(C(=O)N(C)C2CCCCC2)nn(-c2ccc(Cl)cc2Cl)c1-c1ccc(Br)cc1 [Compound 1-29],,,7.5,,2040 nM,273 nM,
Cc1c(NC(=O)NC23CC4CC(CC(C4)C2)C3)nn(-c2ccc(Cl)cc2Cl)c1-c1ccc(Br)cc1 [Compound 3-12],756,259,2.9,,,,
Cc1c(C(O)C(O)c2ccccc2)nn(-c2ccc(Cl)cc2Cl)c1-c1ccc(Br)cc1 (centres unmarked) [Compound 1-28],,1070,3.7,,3930 nM,,
CN(C(=O)c1nn(-c2ccc(Cl)cc2Cl)c(-c2ccc(-c3nnn(C)n3)cc2)c1CO)C1CCCCC1 [Compound 2-18],641,210,3.0,,,,
Cn1nnc(-c2ccc(-c3c(CO)c(C(=O)NN4CCCCC4)nn3-c3ccc(Cl)cc3Cl)cc2)n1 [Compound 2-6],2170,18,120.5,,,,
CCOCc1c(C(=O)NC2CCCCC2)nn(-c2ccc(Cl)cc2Cl)c1-c1ccc(Br)cc1 [Compound 1-10],842,54,16,,,,
Cc1c(C(=O)NN2CCCCC2)nn(-c2ccc(Cl)cc2Cl)c1-c1ccc(-c2ccccc2Cl)cc1 [Compound 1-3],1370,85.1,16,,,,
Cc1c(C(=O)NC2CCCCC2)nn(-c2ccc(Cl)cc2Cl)c1-c1ccc(-c2nnnn2C)cc1 [Compound 2-8],1070,120,8.9,,,,
O=C(NC1CCCCC1)c1nn(-c2ccc(Cl)cc2Cl)c(-c2ccc(Br)cc2)c1CO [Compound 3-18],2120,6,353.3,,,,
Cc1c(NC(=O)NC2CCCCC2)nn(-c2ccc(Cl)cc2Cl)c1-c1ccc(Br)cc1 [Compound 3-8],4320,6.8,635.2,,,,
Cc1c(NC(=O)NC2CCCCC2)nn(-c2ccc(Cl)cc2Cl)c1-c1ccc(-c2cccnc2)cc1 [Compound 2-22],10900,29,374.6,,,,
